According to ChEMBL document CHEMBL3046538, “Synthesis of simplified herboxidiene aromatic hybrids” (2000):

Legend:
Format in all cases: functional
Solanum = assay: Herbicidal activity against Solanum assessed as control at 1 kg/hacter post-emergently
Amaranthus spinosus = assay: Herbicidal activity against Amaranthus spinosus assessed as control at 1 kg/hacter post-emergently
[1] = Herbicidal activity against biennial weeds assessed as control at 1 kg/hacter post-emergently
Abutilon = assay: Herbicidal activity against Abutilon assessed as control at 1 kg/hacter post-emergently

## CCCC[C@H]1O[C@H]1CCOc1cccc([C@@H]2CCC[C@H](CC(=O)OC)O2)c1
Solanum
  Efficacy: 90%
Amaranthus spinosus
  Efficacy: 30%
[1]
  Efficacy: 10%
Abutilon
  Efficacy: 10%

## COC(=O)C[C@H]1CC[C@H](C)[C@@H](/C(C)=C/C=C/[C@@H](C)C[C@@]2(C)O[C@@H]2[C@H](C)[C@@H](OC)[C@@H](C)O)O1 [HERBOXIDIENE METHYL ESTER]
Solanum
  Efficacy: 100%
Amaranthus spinosus
  Efficacy: 100%
[1]
  Efficacy: 100%
Abutilon
  Efficacy: 100%
